Measurements: the SangsterLogP compilation

assay: method code SF, from DOI: 10.1002/qsar.19890080404

logP	SMILES
2.06	CC(=O)c1c[nH]c2ccccc12
0.38	CS(=O)(=O)c1cccs1
0.64	O=Cc1ccc[nH]1
1.34	NC(=S)c1cccs1
1.22	CC(=O)Nc1ccc2[nH]c(C)cc2c1
1.13	N#Cc1ccc[nH]1
2.05	CCOC(=O)c1c[nH]cc1C
1.69	O=Cc1c[nH]c2ccccc12
1.99	O=C(O)c1c[nH]c2ccccc12

assay: not given

logP	SMILES
2.54	Clc1cccs1
1.96	O=[N+]([O-])/C=C/c1cccs1
1.78	CCOC(=O)c1ccoc1
3.25	Clc1cccc2cc[nH]c12
3.18	CCOC(=O)c1cc2ccccc2[nH]1
2.92	O=[N+]([O-])c1ccc2sccc2c1
2.53	CCOc1ccc2cc[nH]c2c1
1.44	COc1ccco1
1.56	O=[N+]([O-])C=Cc1ccco1
1.35	CC(=O)C=Cc1ccco1
3.44	O=C(c1c[nH]c2ccccc12)C(F)(F)F
2.46	N#Cc1cccc2[nH]ccc12
2.36	N#Cc1ccc2[nH]ccc2c1
2.56	Cc1cccc2cc[nH]c12
2.63	O=[N+]([O-])c1cccc2cc[nH]c12
2.01	CC(=O)Oc1c[nH]c2ccccc12
0.41	CN(C)C(=O)c1ccco1
0.66	NC(=O)c1cccc2[nH]ccc12
0.37	NCc1ccco1
0.87	NC(=O)c1ccc2[nH]ccc2c1
2.18	Brc1ccoc1
2.58	COC(=O)c1ccc2[nH]ccc2c1
1.07	O=CNc1ccc2[nH]ccc2c1
2.38	N#Cc1ccc2cc[nH]c2c1
3.04	CCOC(=O)c1c[nH]c2ccccc12
0.51	O=Cc1ccoc1
